# In patent US10688200B2, “Urea-based prostate specific membrane antigen (PSMA) inhibitors for imaging and therapy” (Five Eleven Pharma Inc., priority 2015, dated 2020):
# Assay: Biodistribution of radiotracers in normal mice
# Type: in vivo, mouse
# Settings: for Biodistribution: Blood / Biodistribution: Bone / Biodistribution: Brain / Biodistribution: Heart / Biodistribution: Kidney / Biodistribution: Liver / Biodistribution: Lung / Biodistribution: Muscle / Biodistribution: Pancreas / Biodistribution: Skin / Biodistribution: Spleen: normal male mice
# Procedure: Normal CD-1 male mice were injected via the tail vein with 35 μCi of [^68Ga] radiotracers (0.2 nmole of ligand). […] All organs were removed and blood was also collected. Each organ was weighed, and the tissue radioactivity was measured with an automated gamma counter (Wizard, Perkin Elmer). The % ID/g was calculated by comparison with samples of a standard dilution of the initial dose. All measurements were corrected for decay.
smiles,measurement,setting,value
O=C(O)CC[C@H](NC(=O)N[C@@H](CCCCNC(=O)CCCCCNC(=O)CCc1ccc2c(c1)C[N+]13CC[N+]45CC(=O)[O][68Ga-3]14([O]C(=O)C3)([O]2)[O]c1ccc(CCC(=O)N[C@@H](CC(=O)O)C(=O)O)cc1C5)C(=O)O)C(=O)O (some centres unmarked) [[^68Ga]1e],Biodistribution: Blood,2 min,7.47 ± 0.33 % dose/g
same,Biodistribution: Bone,2 min,2.33 ± 0.05 % dose/g
same,Biodistribution: Brain,2 min,0.25 ± 0.07 % dose/g
same,Biodistribution: Heart,2 min,3.12 ± 0.17 % dose/g
same,Biodistribution: Kidney,2 min,46.6 ± 3.01 % dose/g
same,Biodistribution: Liver,2 min,2.00 ± 0.09 % dose/g
same,Biodistribution: Lung,2 min,5.08 ± 0.13 % dose/g
same,Biodistribution: Muscle,2 min,2.01 ± 0.09 % dose/g
same,Biodistribution: Pancreas,2 min,1.80 ± 0.17 % dose/g
same,Biodistribution: Skin,2 min,2.46 ± 0.32 % dose/g
same,Biodistribution: Spleen,2 min,3.69 ± 0.45 % dose/g
same,Biodistribution: Blood,60 min,0.45 ± 0.14 % dose/g
same,Biodistribution: Bone,60 min,0.52 ± 0.06 % dose/g
same,Biodistribution: Brain,60 min,0.02 ± 0.00 % dose/g
same,Biodistribution: Heart,60 min,0.28 ± 0.05 % dose/g
same,Biodistribution: Kidney,60 min,113 ± 28.5 % dose/g
same,Biodistribution: Liver,60 min,0.35 ± 0.09 % dose/g
same,Biodistribution: Lung,60 min,1.14 ± 0.30 % dose/g
same,Biodistribution: Muscle,60 min,0.33 ± 0.07 % dose/g
same,Biodistribution: Pancreas,60 min,0.74 ± 0.19 % dose/g
same,Biodistribution: Skin,60 min,0.67 ± 0.06 % dose/g
same,Biodistribution: Spleen,60 min,3.03 ± 0.90 % dose/g
O=C(O)CC[C@H](NC(=O)CCc1ccc2c(c1)C[N+]13CC[N+]45CC(=O)[O][68Ga-3]41([O]C(=O)C3)([O]c1ccc(CCC(=O)NCCCCCC(=O)NCCCC[C@H](NC(=O)N[C@@H](CCC(=O)O)C(=O)O)C(=O)O)cc1C5)[O]2)C(=O)O (some centres unmarked) [[^68Ga]1f],Biodistribution: Blood,2 min,7.77 ± 1.51 % dose/g
same,Biodistribution: Bone,2 min,2.33 ± 0.38 % dose/g
same,Biodistribution: Brain,2 min,0.25 ± 0.02 % dose/g
same,Biodistribution: Heart,2 min,3.23 ± 0.64 % dose/g
same,Biodistribution: Kidney,2 min,45.0 ± 12.57 % dose/g
same,Biodistribution: Liver,2 min,2.43 ± 0.60 % dose/g
same,Biodistribution: Lung,2 min,5.07 ± 1.01 % dose/g
same,Biodistribution: Muscle,2 min,1.81 ± 0.07 % dose/g
same,Biodistribution: Pancreas,2 min,1.72 ± 0.41 % dose/g
same,Biodistribution: Skin,2 min,2.44 ± 0.16 % dose/g
same,Biodistribution: Spleen,2 min,3.80 ± 0.97 % dose/g
same,Biodistribution: Blood,60 min,0.97 ± 0.24 % dose/g
same,Biodistribution: Bone,60 min,1.08 ± 0.05 % dose/g
same,Biodistribution: Brain,60 min,0.04 ± 0.01 % dose/g
same,Biodistribution: Heart,60 min,0.52 ± 0.07 % dose/g
same,Biodistribution: Kidney,60 min,120 ± 5.65 % dose/g
same,Biodistribution: Liver,60 min,0.79 ± 0.13 % dose/g
same,Biodistribution: Lung,60 min,1.37 ± 0.15 % dose/g
same,Biodistribution: Muscle,60 min,0.60 ± 0.04 % dose/g
same,Biodistribution: Pancreas,60 min,1.13 ± 0.17 % dose/g
same,Biodistribution: Skin,60 min,0.98 ± 0.10 % dose/g
same,Biodistribution: Spleen,60 min,2.98 ± 1.86 % dose/g
O=C(O)CC[C@H](NC(=O)N[C@@H](CCCCNC(=O)CCCCCNC(=O)CCc1ccc2c(c1)C[N+]13CC[N+]45CC(=O)[O][68Ga-3]14([O]C(=O)C3)([O]2)[O]c1ccc(CCC(=O)NCC(=O)O)cc1C5)C(=O)O)C(=O)O (some centres unmarked) [[^68Ga]1c],Biodistribution: Blood,2 min,8.55 ± 0.07 % dose/g
same,Biodistribution: Bone,2 min,2.30 ± 0.07 % dose/g
same,Biodistribution: Brain,2 min,0.28 ± 0.04 % dose/g
same,Biodistribution: Heart,2 min,3.48 ± 0.31 % dose/g
same,Biodistribution: Kidney,2 min,47.2 ± 2.68 % dose/g
same,Biodistribution: Liver,2 min,2.91 ± 0.15 % dose/g
same,Biodistribution: Lung,2 min,5.42 ± 0.23 % dose/g
same,Biodistribution: Muscle,2 min,2.16 ± 0.34 % dose/g
same,Biodistribution: Pancreas,2 min,2.20 ± 0.04 % dose/g
same,Biodistribution: Skin,2 min,3.00 ± 0.40 % dose/g
same,Biodistribution: Spleen,2 min,3.58 ± 0.48 % dose/g
same,Biodistribution: Blood,60 min,0.58 ± 0.07 % dose/g
same,Biodistribution: Bone,60 min,1.24 ± 0.19 % dose/g
same,Biodistribution: Brain,60 min,0.03 ± 0.01 % dose/g
same,Biodistribution: Heart,60 min,0.43 ± 0.14 % dose/g
same,Biodistribution: Kidney,60 min,83.5 ± 14.7 % dose/g
same,Biodistribution: Liver,60 min,0.79 ± 0.15 % dose/g
same,Biodistribution: Lung,60 min,0.90 ± 0.16 % dose/g
same,Biodistribution: Muscle,60 min,0.60 ± 0.13 % dose/g
same,Biodistribution: Pancreas,60 min,1.13 ± 0.17 % dose/g
same,Biodistribution: Skin,60 min,1.07 ± 0.16 % dose/g
same,Biodistribution: Spleen,60 min,1.63 ± 0.20 % dose/g
O=C(O)CC[C@H](NC(=O)N[C@@H](CCCCNC(=O)CCCCCNC(=O)CCc1ccc2c(c1)C[N+]13CC[N+]45CC(=O)[O][68Ga-3]14([O]C(=O)C3)([O]2)[O]c1ccc(CCC(=O)NCCNC(=O)CN2CCN(CC(=O)O)CCN(CC(=O)O)CCN(CC(=O)O)CC2)cc1C5)C(=O)O)C(=O)O (some centres unmarked) [[^68Ga]1g],Biodistribution: Blood,2 min,7.62 ± 0.08 % dose/g
same,Biodistribution: Bone,2 min,1.51 ± 0.17 % dose/g
same,Biodistribution: Brain,2 min,0.29 ± 0.06 % dose/g
same,Biodistribution: Heart,2 min,2.82 ± 0.21 % dose/g
same,Biodistribution: Kidney,2 min,50.9 ± 5.81 % dose/g
same,Biodistribution: Liver,2 min,2.00 ± 0.05 % dose/g
same,Biodistribution: Lung,2 min,5.19 ± 0.19 % dose/g
same,Biodistribution: Muscle,2 min,1.72 ± 0.18 % dose/g
same,Biodistribution: Pancreas,2 min,1.73 ± 0.09 % dose/g
same,Biodistribution: Skin,2 min,2.00 ± 0.21 % dose/g
same,Biodistribution: Spleen,2 min,5.06 ± 0.78 % dose/g
same,Biodistribution: Blood,30 min,0.68 ± 0.09 % dose/g
same,Biodistribution: Bone,30 min,0.22 ± 0.11 % dose/g
same,Biodistribution: Brain,30 min,0.06 ± 0.03 % dose/g
same,Biodistribution: Heart,30 min,0.49 ± 0.15 % dose/g
same,Biodistribution: Kidney,30 min,110 ± 13.4 % dose/g
same,Biodistribution: Liver,30 min,0.47 ± 0.06 % dose/g
same,Biodistribution: Lung,30 min,2.13 ± 0.39 % dose/g
same,Biodistribution: Muscle,30 min,0.48 ± 0.04 % dose/g
same,Biodistribution: Pancreas,30 min,0.73 ± 0.19 % dose/g
same,Biodistribution: Skin,30 min,1.13 ± 0.25 % dose/g
same,Biodistribution: Spleen,30 min,5.28 ± 2.18 % dose/g
same,Biodistribution: Blood,60 min,0.41 ± 0.02 % dose/g
same,Biodistribution: Bone,60 min,0.28 ± 0.03 % dose/g
same,Biodistribution: Brain,60 min,0.03 ± 0.01 % dose/g
same,Biodistribution: Heart,60 min,0.27 ± 0.03 % dose/g
same,Biodistribution: Kidney,60 min,116 ± 23.2 % dose/g
same,Biodistribution: Liver,60 min,0.43 ± 0.05 % dose/g
same,Biodistribution: Lung,60 min,1.33 ± 0.06 % dose/g
same,Biodistribution: Muscle,60 min,0.30 ± 0.08 % dose/g
same,Biodistribution: Pancreas,60 min,0.48 ± 0.05 % dose/g
same,Biodistribution: Skin,60 min,0.92 ± 0.11 % dose/g
same,Biodistribution: Spleen,60 min,4.77 ± 2.37 % dose/g
same,Biodistribution: Blood,120 min,0.25 ± 0.04 % dose/g
same,Biodistribution: Bone,120 min,0.28 ± 0.03 % dose/g
same,Biodistribution: Brain,120 min,0.02 ± 0.00 % dose/g
same,Biodistribution: Heart,120 min,0.16 ± 0.01 % dose/g
same,Biodistribution: Kidney,120 min,95.0 ± 11.2 % dose/g
same,Biodistribution: Liver,120 min,0.30 ± 0.01 % dose/g
same,Biodistribution: Lung,120 min,0.85 ± 0.16 % dose/g
same,Biodistribution: Muscle,120 min,0.23 ± 0.04 % dose/g
same,Biodistribution: Pancreas,120 min,0.39 ± 0.04 % dose/g
same,Biodistribution: Skin,120 min,0.66 ± 0.10 % dose/g
same,Biodistribution: Spleen,120 min,2.48 ± 0.91 % dose/g
O=C(O)CC[C@H](NC(=O)N[C@@H](CCCCNC(=O)CCCCCNC(=O)CCc1ccc(O)c(CN(CCN(CC(=O)O)Cc2cc(CCC(=O)NCCNC(=O)CN3CCN4CCN5CCN(CC3)CC(=O)[O][177Lu]([O]C(=O)C4)[O]C(=O)C5)ccc2O)CC(=O)O)c1)C(=O)O)C(=O)O [[^177Lu]1g],Biodistribution: Blood,0.5 hr,0.64 ± 0.22 % dose/g
same,Biodistribution: Bone,0.5 hr,0.22 ± 0.05 % dose/g
same,Biodistribution: Brain,0.5 hr,0.03 ± 0.01 % dose/g
same,Biodistribution: Heart,0.5 hr,0.28 ± 0.09 % dose/g
same,Biodistribution: Kidney,0.5 hr,40.6 ± 10.5 % dose/g
same,Biodistribution: Liver,0.5 hr,0.23 ± 0.02 % dose/g
same,Biodistribution: Lung,0.5 hr,0.80 ± 0.38 % dose/g
same,Biodistribution: Muscle,0.5 hr,0.27 ± 0.07 % dose/g
same,Biodistribution: Pancreas,0.5 hr,0.40 ± 0.07 % dose/g
same,Biodistribution: Skin,0.5 hr,0.56 ± 0.12 % dose/g
same,Biodistribution: Spleen,0.5 hr,0.78 ± 0.37 % dose/g
same,Biodistribution: Blood,1 hr,0.15 ± 0.05 % dose/g
same,Biodistribution: Bone,1 hr,0.11 ± 0.01 % dose/g
same,Biodistribution: Brain,1 hr,0.01 ± 0.00 % dose/g
same,Biodistribution: Heart,1 hr,0.14 ± 0.01 % dose/g
same,Biodistribution: Kidney,1 hr,30.3 ± 3.50 % dose/g
same,Biodistribution: Liver,1 hr,0.12 ± 0.02 % dose/g
same,Biodistribution: Lung,1 hr,0.45 ± 0.13 % dose/g
same,Biodistribution: Muscle,1 hr,0.11 ± 0.03 % dose/g
same,Biodistribution: Pancreas,1 hr,0.32 ± 0.183 % dose/g
same,Biodistribution: Skin,1 hr,0.21 ± 0.04 % dose/g
same,Biodistribution: Spleen,1 hr,0.92 ± 0.24 % dose/g
same,Biodistribution: Blood,6 hr,0.01 ± 0.00 % dose/g
same,Biodistribution: Bone,6 hr,0.12 ± 0.01 % dose/g
same,Biodistribution: Brain,6 hr,0.01 ± 0.00 % dose/g
same,Biodistribution: Heart,6 hr,0.02 ± 0.01 % dose/g
same,Biodistribution: Kidney,6 hr,17.8 ± 4.07 % dose/g
same,Biodistribution: Liver,6 hr,0.07 ± 0.01 % dose/g
same,Biodistribution: Lung,6 hr,0.11 ± 0.00 % dose/g
same,Biodistribution: Muscle,6 hr,0.03 ± 0.00 % dose/g
same,Biodistribution: Pancreas,6 hr,0.08 ± 0.03 % dose/g
same,Biodistribution: Skin,6 hr,0.06 ± 0.00 % dose/g
same,Biodistribution: Spleen,6 hr,0.28 ± 0.08 % dose/g
same,Biodistribution: Blood,24 hr,0.01 ± 0.00 % dose/g
same,Biodistribution: Bone,24 hr,0.12 ± 0.01 % dose/g
same,Biodistribution: Brain,24 hr,0.01 ± 0.00 % dose/g
same,Biodistribution: Heart,24 hr,0.01 ± 0.00 % dose/g
same,Biodistribution: Kidney,24 hr,4.02 ± 1.34 % dose/g
same,Biodistribution: Liver,24 hr,0.03 ± 0.00 % dose/g
same,Biodistribution: Lung,24 hr,0.03 ± 0.01 % dose/g
same,Biodistribution: Muscle,24 hr,0.01 ± 0.00 % dose/g
same,Biodistribution: Pancreas,24 hr,0.02 ± 0.01 % dose/g
same,Biodistribution: Skin,24 hr,0.04 ± 0.01 % dose/g
same,Biodistribution: Spleen,24 hr,0.04 ± 0.00 % dose/g
same,"Initial uptakes in the kidneys, in words",normal mice,comparable to that of [^68Ga]1g
